# Assay results: patent publication US6048888A, “Method and pharmaceutical formulation for treating benign prostatic hyperplasia” (priority 1993, dated 2000)
# Experiments:
# [1] = test system: melatonin binding sites in cytosol of epithelial cells from human BPH prostate tissue; test: Specific binding of 125I-melatonin to cytosol from epithelial cells of human BPH tissue; conditions: for Bound in Epithelial (specific binding, mean): 4 patients
# Protocol: (§1) Tissue specimens were obtained from prostate glands removed by open surgery from patients suffering from urinary obstruction due to benign prostatic hyperplasia. Epithelial and stromal cells were separated from the tissue by filtration through a stainless steel mesh. The cells were then washed with saline and collected by centrifugation (1000 g, 5 min). […] The two preparations were separately homogenized at 4° C. in 0.05 M Tris-HCl, pH 7.4. Each homogenate was spun at 100,000 g for 1 hour at 4° C. and the supernatant was removed with a Pasteur pipette. Melatonin binding was measured by incubating 300 microliters of supernatant containing ca. 20 mcg. protein with carrier-free ^125 I-melatonin at concentrations of 0-1 nM, for 1 hour at 37° C. in the presence of 0.05% Triton X-100. After the incubation period, bound ^125 I-melatonin was separated from free ^125 I-melatonin by vacuum filtration using GFF glass fiber filters saturated with polyethylenimine. Protein concentrations were measured by the method of Lowry et al (J. Biol. Chem., 193: 265, 1951) using bovine serum albumin as a standard. Non-specific binding was determined by incubating the supernatant samples with the specified concentrations of ^125 I-melatonin, but in the presence of a vast excess (10 micromolar) nonradioactive melatonin.
# [2] = test system: melatonin binding sites in cytosol of stromal cells from human BPH prostate tissue; test: Specific binding of 125I-melatonin to cytosol from stromal cells of human BPH tissue; conditions: for Bound in Stromal (specific binding, mean): 4 patients
# Protocol: as §1, with “melatonin. These experiments were repeated four times, using specimens from four different patients, with similar results.” for “melatonin.”
# pinealectomized rats = conditions: orally administered; cited from earlier work
# BPH patients [3] = format: in vivo, human
# Protocol: In a clinical trial which commenced in April, 1993, 23 BPH patients were recruited and divided into two groups, one group receiving 5 mg melatonin in a sustained release formulation and the other group 50 mg melatonin in a fast release formulation, these dosages being given daily, in the evening. One patient withdrew from the study after 7 days of treatment. […] Up to August, 1993, 6 patients finished 3 months' treatment with melatonin, and the remainder had 1-2 months treatment. All patients will continue the treatment with melatonin until 6 months is completed.
# [4] = test system: castrated rats; hypophysectomized animals; conditions: cited from earlier work
# aged male rats = test: Experiment 3: melatonin via drinking water for 30 days in aged male rats; format: in vivo, rat; conditions: 23-month old male rats
# Protocol: The impact of exogenously administered melatonin on central melatonin binding sites and serum testosterone in aged male rats was investigated. Thus, 23-month old male rats were treated with melatonin via the drinking water for 30 days.
# [5] = test system: male volunteers suffering from BPH; test: Experiment 2: placebo-controlled study of oral melatonin in male volunteers suffering from BPH; format: in vivo, human; conditions: 5 mg melatonin/day oral at about 10 p.m.; preliminary results
# male and female rats = conditions: oral 16-40 mcg. per day; cited from earlier work
# 3α reductase = conditions: BPH tissue samples; cited from earlier work
# [6] = test system: patient with benign prostate hypertrophy; test: Example I: BPH patient on 0.5 mg sustained release melatonin daily; format: in vivo, human
# Protocol: Thus, the patient's PSA level was elevated, and their prostatic acid phosphatase level was slightly above normal. […] Diagnosis after needle biopsy was benign prostate hypertrophy.
# The patient began taking 0.5 mg melatonin in the sustained release form daily at 21:00-22:00 hours on Feb. 1, 1992; on a continuing basis, i.e. medication was continued essentially indefinitely. […] Examination of the patient by ultrasonographic scanning on Oct. […] By Jun.
# [7] = test system: melatonin binding sites in the rat brain; test: Experiment 5: melatonin binding sites in rat brain, sham-operated and pinealectomized rats; format: in vivo
# BPH patients [8] = test: Example II: ultrastructural morphology of the human prostate after 30 days of melatonin; format: in vivo; conditions: 5 mg sustained release daily in the evening, 30 days prior to prostatectomy, five BPH patients
# Text: Specimens from the prostate glands removed from the treated patients, and from control untreated patients of the same status, were fixed in glutaraldehyde immediately after the excision, embedded in "Epon" and analyzed by electron microscopy.
# [9] = test system: 8-10 month old adult rats; test: Experiment 4: long term (~18 months) melatonin via drinking water in adult rats; format: in vivo, rat
# Protocol: The effects on 8-10 month old adult rats, of long term (~18 months) administration of melatonin via the drinking water (4 mg./l.), on the survival, on central melatonin binding sites, and on serum testosterone, were investigated.
# 5α reductase = conditions: BPH tissue samples; cited from earlier work
# human subjects = conditions: cited from earlier work
# adult castrated rats = test: Experiment 1: androgen-dependent regrowth of accessory sex organs in adult castrated rats; format: in vivo, rat; conditions: testosterone propionate 1 mg/kg/day s.c. 4 days, melatonin about 40 mcg per day in drinking water
# Protocol: The effects of orally administered melatonin on androgen-dependent prostatal regrowth in adult castrated rats was investigated. Male rats (2.5 months old) were castrated under anesthesia. After 7 days, during which the average weight of the prostate decreased by ca. 60%, the rats were given daily for 4 days, a subcutaneous injection of either oil vehicle (control) or oil vehicle containing testosterone propionate (1 mg/kg body weight per day, at one hour before lights-off). […] In order to determine the weight of the relevant organs, the rats were sacrificed at the end of the 4 days following the first 7 days. […] These studies indicate a direct inhibitory effect of orally administered melatonin on prostatal growth in adult rats, contrary to the dogma that melatonin can affect the pubertal development of the rat only during the first (prepubertal) 40 days of life (Lang et al. Endocrinology,112, 1578-1584, 1983).
# [10] = patients who had completed 3 months' treatment
# [11] = 4 mg./l. in drinking water, ~18 months
# [12] = pinealectomized rats, daily injections
smiles,measurement,setting,value
COc1ccc2[nH]c([125I])c(CCNC(C)=O)c2c1 [^125 I-melatonin],"Bound in Epithelial (specific binding, mean)",[1]; 125I-melatonin 0.05 nM,6.25 fmol/mg protein
same,"Bound in Epithelial (specific binding, mean)",[1]; 125I-melatonin 0.10 nM,12.5 fmol/mg protein
same,"Bound in Epithelial (specific binding, mean)",[1]; 125I-melatonin 0.20 nM,31.3 fmol/mg protein
same,"Bound in Epithelial (specific binding, mean)",[1]; 125I-melatonin 0.30 nM,45.6 fmol/mg protein
same,"Bound in Epithelial (specific binding, mean)",[1]; 125I-melatonin 0.50 nM,66.9 fmol/mg protein
same,"Bound in Epithelial (specific binding, mean)",[1]; 125I-melatonin 1.00 nM,93.1 fmol/mg protein
same,"Bound in Stromal (specific binding, mean)",[2]; 125I-melatonin 0.05 nM,0.6 fmol/mg protein
same,"Bound in Stromal (specific binding, mean)",[2]; 125I-melatonin 0.10 nM,2.5 fmol/mg protein
same,"Bound in Stromal (specific binding, mean)",[2]; 125I-melatonin 0.20 nM,3.7 fmol/mg protein
same,"Bound in Stromal (specific binding, mean)",[2]; 125I-melatonin 0.30 nM,4.3 fmol/mg protein
same,"Bound in Stromal (specific binding, mean)",[2]; 125I-melatonin 0.50 nM,8.8 fmol/mg protein
same,"Bound in Stromal (specific binding, mean)",[2]; 125I-melatonin 1.00 nM,16.2 fmol/mg protein
COc1ccc2[nH]cc(CCNC(C)=O)c2c1 [melatonin],Kd,"[1]; 125I-melatonin probe, epithelial cell cytosol, 1 hour at 37° C., read-out: dissociation constant",0.6 nM
same,binding site density,[1]; epithelial cell cytosol,140 fmol/mg cytosol protein
same,ventral prostate and seminal vesicle weight,pinealectomized rats,lowered ventral prostate and seminal vesicle weight
same,urinary flow (subjective),"BPH patients [3]; 5 mg sustained release or 50 mg fast release daily in the evening, all patients but one who withdrew",subjective improvement of urinary flow
same,decrease in the PSA level,BPH patients [3]; [10],approximately 10%
same,enlargement of the prostate gland,BPH patients [3]; [10],no further enlargement of the prostate gland
same,weight of testes and ventral prostate gland,[4]; hypophysectomized animals,decreases the weight of both the testes and the ventral prostate gland
same,regression of the ventral prostate gland,"[4]; subcutaneous 750 mcg., castrated rats, in presence of exogenous testosterone",enhances regression of the ventral prostate gland
same,melatonin binding sites in brain areas,aged male rats,"markedly increased melatonin binding sites in the hypothalamus, medulla-pons, thalamus and cortex"
same,serum testosterone levels vs untreated controls,aged male rats,did not significantly differ
same,suppressive effect of testosterone on melatonin binding sites in hypothalamus and hippocampus,aged male rats,attenuated a suppressive effect of testosterone on melatonin binding sites
same,urinary flow,[5],immediate improvement in urinary flow in some of the patients
same,"pubertal development, including prostate development in the males",male and female rats,delayed pubertal development of male and female rats
same,3α reductase activity,3α reductase,stimulate 3α reductase activity
same,urinary flow (subjective),"[6]; 0.5 mg sustained release daily at 21:00-22:00, 6 days after initiation",subjective improvement in urinary flow
same,estimated size of the prostate gland (ultrasonographic scanning),"[6]; 0.5 mg sustained release daily, Oct. 22, 1992, 55 g before and after",no change in estimated size of the prostate gland
same,residual bladder urine volume retained after two attempts to empty the bladder,"[6]; 0.5 mg sustained release daily, Oct. 22, 1992, 100 ml before treatment",zero
same,125I-melatonin binding in the various brain areas,"[7]; pinealectomized rats, melatonin via drinking water, any time recorded",had no effect on ^125 I-melatonin binding
same,125I-melatonin binding in hippocampus and midbrain,"[7]; sham-operated rats, melatonin via drinking water, 13 hours after lights-on",decrease in ^125 I-melatonin binding
same,ultrastructural morphology of prostate specimens (electron microscopy),BPH patients [8],evidence for secretion of fresh collagen bundles
same,"concentration of binding sites in stromal cytosol, factor lower than epithelial",[2]; relative to 140 fmol/mg in epithelial cytosol,approximately 10 x
same,specific binding in the stromal preparations,[2]; stromal cell cytosol,very low
same,melatonin binding sites in brain of aged rats,[9]; [11],significantly increased melatonin binding sites in the medulla-pons and hypothalamus
same,number of rats surviving at the age of 24-29 months,[9]; [11],markedly increased the number of rats surviving
same,serum testosterone levels vs untreated controls,[9]; [11],significantly higher
same,survival at age 27-29 months,"[9]; 4 mg./l. in drinking water, control 7 of 16",these continued to live at age 27-29 months
same,animals surviving at age 26-28 months,"[9]; 4 mg./l. in drinking water, control 8 of 16, P=0.01",13 of 15 animals
same,pneumonia,"[9]; aged survivors, 5 of 7 control survivors had severe pneumonia","either did not suffer from pneumonia, or had only very weak symptoms"
same,5α reductase activity,5α reductase,did not affect 5α reductase activity
same,toxicity,"human subjects; human, in vivo",no significant toxicity has been observed
same,circulating testosterone levels,human subjects; humans,does not increase circulating testosterone levels
same,weight / regrowth of seminal vesicles,adult castrated rats,did not significantly affect regrowth of the seminal vesicles
same,weight / regrowth of ventral prostate,adult castrated rats,prevented the testosterone-mediated regrowth of the prostate
same,weight of epididemis,adult castrated rats,had hardly any effect on the epididemis
O=C1Nc2ccc(Cl)cc2C(c2ccccc2)=NC1O (stereo not shown) [oxazepam],melatonin binding at other times of the day,[7]; [12],did not significantly effect the binding at other times of the day
same,melatonin binding sites at 19 hours after lights-on,[7]; [12],decreased melatonin binding sites at 19 hours after lights-on
same,"densities of melatonin binding sites in brain areas, time of peak","[7]; sham-operated rats, daily injections 14 days, untreated peak at 13 hours after lights-on",higher at midnight
"CCC(=O)O[C@H]1CC[C@H]2[C@@H]3CCC4=CC(=O)CC[C@]4(C)[C@H]3CC[C@]12C [testosterone, testosterone propionate]",weight / regrowth of seminal vesicles,adult castrated rats,increased the weight of the seminal vesicles and ventral prostate
same,weight / regrowth of ventral prostate,adult castrated rats,increased the weight of the seminal vesicles and ventral prostate
same,weight of epididemis,adult castrated rats,had no effect on the epididemis
